Assay results published in PMC8580319, “Dual activities of ACC synthase: Novel clues regarding the molecular evolution of ACS genes” (Science Advances, 2021).

Assays:
[1] = molecular target: AtACS7-R6 (AtACS7 in which BOX2 is replaced by PpACL1-BOX2) (Arabidopsis | Physcomitrella patens); assay: crystal structure; AtACS7-R6 with PPG (1 mM PLP and AVG added), hanging drop, 0.1 M Hepes pH 7.6, 6% PEG-10000; 2.95 Å; one dimer in the asymmetric unit
AtACS7 [2] = molecular target: T1, AtACS7 (Arabidopsis thaliana, UniProt Q9STR4); assay: Cβ-S lyase activity with and without PLP, pyruvate assay; format: biochemical; conditions: L-cystine 4 mM, 30°C
T1 construct: gene ACS7; recombinant from E. coli Rosetta 2 (DE3) pLysS; pET-28a (His) or pGEX-6p-1 (GST); His-tagged protein for crystals; dimer
T1 sequence (Q9STR4 1-447): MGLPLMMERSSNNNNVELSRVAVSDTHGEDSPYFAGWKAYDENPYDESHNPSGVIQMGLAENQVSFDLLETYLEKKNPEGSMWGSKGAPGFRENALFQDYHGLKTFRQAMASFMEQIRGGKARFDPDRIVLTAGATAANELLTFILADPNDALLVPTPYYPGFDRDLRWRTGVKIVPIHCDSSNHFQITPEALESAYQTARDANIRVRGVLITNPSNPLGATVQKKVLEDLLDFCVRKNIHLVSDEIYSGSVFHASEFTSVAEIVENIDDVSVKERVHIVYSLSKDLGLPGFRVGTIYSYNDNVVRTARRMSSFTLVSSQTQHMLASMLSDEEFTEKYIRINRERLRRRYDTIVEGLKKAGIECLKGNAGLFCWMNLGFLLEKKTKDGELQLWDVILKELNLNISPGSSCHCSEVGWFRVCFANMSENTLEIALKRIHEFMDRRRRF

AtACS7 [3] = molecular target: T1, AtACS7; assay: inhibition of Cβ-S lyase activity, pyruvate assay; format: biochemical; conditions: L-cystine 4 mM, 100 μM PLP, 30°C; forms adduct with PLP
AtACS7 [4] = molecular target: T2, AtACS7 (Arabidopsis thaliana, UniProt Q9STR4, D245N); assay: ACC formation, converted to ethylene, GC; format: biochemical; conditions: ACS activity, reduced; 0.4 mM SAM, pH 8.5, 30°C, 10 μM PLP
T2 construct: gene ACS7; recombinant from E. coli Rosetta 2 (DE3) pLysS; pET-28a (His) or pGEX-6p-1 (GST); His-tagged protein for crystals; dimer
T2 sequence (Q9STR4 1-447 D245N): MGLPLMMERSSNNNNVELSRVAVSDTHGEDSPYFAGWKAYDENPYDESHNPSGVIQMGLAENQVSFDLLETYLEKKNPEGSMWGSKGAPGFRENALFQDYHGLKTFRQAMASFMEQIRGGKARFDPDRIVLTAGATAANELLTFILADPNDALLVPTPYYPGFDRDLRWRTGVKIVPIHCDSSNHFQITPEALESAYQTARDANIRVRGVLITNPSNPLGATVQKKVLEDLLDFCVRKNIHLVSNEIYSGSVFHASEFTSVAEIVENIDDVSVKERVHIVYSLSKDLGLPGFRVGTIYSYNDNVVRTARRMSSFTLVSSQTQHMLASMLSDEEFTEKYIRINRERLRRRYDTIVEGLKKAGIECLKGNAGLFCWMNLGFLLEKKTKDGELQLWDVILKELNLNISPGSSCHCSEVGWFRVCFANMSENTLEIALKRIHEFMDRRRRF

[5] = molecular target: the molecule itself; assay: crystal structure; AtACS7 with PPG (1 mM PLP and AVG added), hanging drop, 0.1 M tris pH 8.6, 23% PEG-3350; 2.20 Å; four complexes as two dimers in the asymmetric unit

AtACS7-R6 (AtACS7 in which BOX2 is replaced by PpACL1-BOX2) (enzyme)
stoichiometry N [1]: 2

Cc1ncc(COP(=O)(O)O)c(C=O)c1O [PLP]
Cβ-S lyase activity with and without PLP, pyruvate assay (AtACS7 [2]): The Cβ-S lyase activity of AtACS7 was also PLP dependent

NCCO/C=C/[C@H](N)C(=O)O [AVG]
inhibition at 5 μM (AtACS7 [3]): could be totally suppressed by adding AVG to the reaction mixture

C[S+](CC[C@H](N)C(=O)O)C[C@H]1O[C@@H](n2cnc3c(N)ncnc32)[C@H](O)[C@@H]1O (some centres unmarked) [SAM]
ACC formation, converted to ethylene, GC (AtACS7 [4]): mutant still retained considerable, albeit reduced, ACS activity

B1: Arabidopsis ACS7 (AtACS7), 1-aminocyclopropane-1-carboxylate (ACC) synthase 7 (enzyme)
chain: MGLPLMMERSSNNNNVELSRVAVSDTHGEDSPYFAGWKAYDENPYDESHNPSGVIQMGLAENQVSFDLLETYLEKKNPEGSMWGSKGAPGFRENALFQDYHGLKTFRQAMASFMEQIRGGKARFDPDRIVLTAGATAANELLTFILADPNDALLVPTPYYPGFDRDLRWRTGVKIVPIHCDSSNHFQITPEALESAYQTARDANIRVRGVLITNPSNPLGATVQKKVLEDLLDFCVRKNIHLVSDEIYSGSVFHASEFTSVAEIVENIDDVSVKERVHIVYSLSKDLGLPGFRVGTIYSYNDNVVRTARRMSSFTLVSSQTQHMLASMLSDEEFTEKYIRINRERLRRRYDTIVEGLKKAGIECLKGNAGLFCWMNLGFLLEKKTKDGELQLWDVILKELNLNISPGSSCHCSEVGWFRVCFANMSENTLEIALKRIHEFMDRRRRF
notes: ACC synthase 7 (AtACS7) of Arabidopsis thaliana, TAIR locus AT4G26200; vector pET-28a or pGEX-6p-1 per the methods, HisTrap purification points to the His form; also called wild-type AtACS7; source: E. coli BL21 [Rosetta 2 (DE3) plysS], purified (HisTrap, Hitrap Q HP ion exchange, Superdex 200 gel filtration)
stoichiometry N [5]: 2
